From US20190125867A1, “THERAPEUTIC AGENT FOR SOLID CANCER” (IDAC THERANOSTICS, INC., priority 2014, published 2019)

Legend:
[1] = tested on: mouse melanoma cell line B16F10; experiment: Tumor volume in C57BL/6 mice transplanted with melanoma cell line B16F10; type: in vivo; details: Day 15
Description: On Day −2 (two days before the cancer cell transplantation), Day 0 (=day of cancer cell transplantation), Day 3, Day 5, Day 9, or Day 12, 0.2 mg of an anti-CD4 antibody (GK1.5; an antibody known to be capable of causing depletion of CD4+ cells in the mouse body by the CDC activity; manufactured by BioXcell) was intraperitoneally administered at one time. The solid tumor diameter was measured on Day 14, and the tumor volume was calculated by short diameter×short diameter×long diameter×π/6.
On Day 5, 3.125 μg, 12.5 μg, 50 μg, or 200 μg of the anti-CD4 antibody was administered (negative control group: no antibody was administered).
The solid tumor diameter in each mouse was measured, and the tumor volume was calculated (short diameter×short diameter×long diameter×π/6).
Thereafter, antibody administration was carried out as follows (Day 0=day of cancer cell transplantation).
The tumor volume was calculated (short diameter×short diameter×long diameter×π/6) from the solid tumor diameter measured on Day 18.
The tumor volume was calculated (short diameter×short diameter×long diameter×π/6) from the solid tumor diameter measured on Day 15.
The tumor volume was calculated (short diameter×short diameter×long diameter×π/6) from the solid tumor diameter measured on Day 16.

[2] = tested on: CD4+ cells in human peripheral blood mononuclear cells; experiment: ADCC activity assay (Promega ADCC activity assay kit, PBMCs + ADCC Bioassay Effector cells); type: cell-based; details: 12,500 PBMCs, 75,000 effector cells, 37° C. 6 hours; FIG. 1
Description: Measurement of the ADCC activity of IT1208 was carried out under the following conditions, according to the protocol for an ADCC activity assay kit sold by Promega. After gently mixing 12,500 PBMCs derived from a healthy individual, anti-CD4mAb (IT1208), and 75,000 ADCC Bioassay Effector cells contained in the Promega kit, the cells were cultured in a CO2 incubator at 37° C. for 6 hours. The luminescent reagent Bio-Glo reagent was added to the culture, and culturing was then continued at room temperature for 20 minutes, followed by measuring chemiluminescence using a luminescence plate reader.

[3] = Example 7 (small molecule anticancer agents), anti-CD4 0.2 mg Day 5, 9, OXA 10, GEM 20, CPA 10 mg/kg Day 5, 9, 12, 16, FIG. 23

Compound | growth of solid tumor relative to control group [1, 3] | further results
O=c1[nH]cc(F)c(=O)[nH]1 [5-FU] | – | growth of solid tumor relative to control group ([1]; Example 4, anti-CD4 0.2 mg once Day 5, anti-CD137 0.1 mg Day 5-9, 5-FU 50 mg/kg four times, FIG. 13): 36%
O=P1(N(CCCl)CCCl)NCCCO1 (stereo not shown) [CPA, Cyclophosphamide] | 75% | –
Nc1ccn([C@@H]2O[C@H](CO)[C@@H](O)C2(F)F)c(=O)n1 [GEM, Gemcitabine] | 63% | –
Rituximab | – | concentration at which ADCC activity began to be found [2]: ≥ 10 nM
